Data set [1] concerns the target T1, human A3 adenosine receptors (Homo sapiens, UniProt P0DMS8).
T1 sequence (P0DMS8 1-318): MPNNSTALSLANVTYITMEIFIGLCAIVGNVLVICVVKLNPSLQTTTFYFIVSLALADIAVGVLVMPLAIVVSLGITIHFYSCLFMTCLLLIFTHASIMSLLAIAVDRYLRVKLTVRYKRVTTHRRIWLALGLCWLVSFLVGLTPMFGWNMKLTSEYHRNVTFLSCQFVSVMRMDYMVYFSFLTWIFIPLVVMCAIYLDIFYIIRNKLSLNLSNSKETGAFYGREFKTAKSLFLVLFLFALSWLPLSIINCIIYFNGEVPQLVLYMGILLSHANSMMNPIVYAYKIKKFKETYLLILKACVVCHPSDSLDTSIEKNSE
In words: Displacement of [125I]AB MECA binding at human A3 adenosine receptors expressed in HEK-293 cells. Also noted: expressed in transfected cells. To be noted: Table 2, footnote a: [125I]AB MECA, human A3, HEK-293 cells.

The nature of data set [2]: Water solubility (stated in words). The data set is classed as physicochemical.
Data set [3] has as its target T2, human A1 adenosine receptors (Homo sapiens, UniProt P30542).
T2 construct: expressed in transfected cells; host or cells: CHO cells
T2 sequence (P30542 1-326): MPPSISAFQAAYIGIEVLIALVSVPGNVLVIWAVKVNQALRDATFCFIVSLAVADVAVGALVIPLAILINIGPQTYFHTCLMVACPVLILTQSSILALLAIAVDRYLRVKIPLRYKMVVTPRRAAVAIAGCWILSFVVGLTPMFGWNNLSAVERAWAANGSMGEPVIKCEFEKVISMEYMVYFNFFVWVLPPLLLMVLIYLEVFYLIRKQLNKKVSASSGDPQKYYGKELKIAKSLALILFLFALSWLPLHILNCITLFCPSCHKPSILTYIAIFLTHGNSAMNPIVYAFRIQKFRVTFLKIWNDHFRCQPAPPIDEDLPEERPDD
Description: Displacement of [3H]DPCPX binding at human A1 adenosine receptors expressed in CHO cells.

Data set [4] addresses T3, human A2A adenosine receptors (Homo sapiens, UniProt P29274).
T3 construct: expressed in transfected cells; host or cells: CHO cells
In words: Displacement of [3H]SCH58261 binding at human A2A adenosine receptors expressed in CHO cells. To be noted: for Ki: CHO cells.

Data set [5] addresses T4, human A2B adenosine receptors (Homo sapiens, UniProt P29275).
T4 construct: expressed in transfected cells; host or cells: HEK-293 cells
T4 sequence (P29275 1-332): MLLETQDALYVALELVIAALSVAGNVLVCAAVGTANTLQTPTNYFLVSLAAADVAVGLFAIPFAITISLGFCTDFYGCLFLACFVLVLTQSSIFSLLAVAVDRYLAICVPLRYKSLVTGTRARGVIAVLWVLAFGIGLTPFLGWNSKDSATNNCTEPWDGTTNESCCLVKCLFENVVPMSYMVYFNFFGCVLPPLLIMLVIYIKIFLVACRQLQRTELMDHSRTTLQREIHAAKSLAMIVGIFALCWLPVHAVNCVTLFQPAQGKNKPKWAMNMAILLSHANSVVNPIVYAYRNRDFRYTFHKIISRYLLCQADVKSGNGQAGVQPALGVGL
In words: Displacement of [3H]DPCPX binding at human A2B adenosine receptors expressed in HEK-293 cells.

Data set [6] addresses T1, human A3 adenosine receptors. In words: Displacement of [3H]MRE 3008F20 binding at human A3 adenosine receptors expressed in CHO cells. As to conditions: for selectivity for A3 versus the other adenosine receptor subtypes / affinity for / interaction with A3 adenosine receptor subtype: in words; for affinity for / interaction with A3 adenosine receptor subtype: discussion of Tables 2 and 3. Also noted: expressed in transfected cells; host or cells: CHO cells.

The mark [7] stands for this setting: Table 3: [3H]SCH58261, human A2A.
Where [8] appears, read: Table 3: [3H]MRE 3008F20, human A3, CHO cells.
Setting [9] is: Table 2, footnote b: [3H]DPCPX, human A1.
[10] abbreviates: Table 2, footnote b: [3H]SCH58261, human A2A.
Setting [11] is: Table 2, footnote b: [3H]MRE 3008F20, human A3, CHO cells.

T3 sequence (P29274 whole entry): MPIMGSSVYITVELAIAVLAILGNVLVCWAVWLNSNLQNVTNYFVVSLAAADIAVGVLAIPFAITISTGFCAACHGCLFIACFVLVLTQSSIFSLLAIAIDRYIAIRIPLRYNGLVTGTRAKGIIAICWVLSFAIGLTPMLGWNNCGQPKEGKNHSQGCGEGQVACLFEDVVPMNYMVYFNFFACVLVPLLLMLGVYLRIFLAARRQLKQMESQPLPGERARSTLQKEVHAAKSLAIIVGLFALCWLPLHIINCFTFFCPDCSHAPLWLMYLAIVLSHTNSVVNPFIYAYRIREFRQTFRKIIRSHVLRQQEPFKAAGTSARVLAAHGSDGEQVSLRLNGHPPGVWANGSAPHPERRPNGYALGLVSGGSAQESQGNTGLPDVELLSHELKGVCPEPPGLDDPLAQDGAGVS

On to `Nc1nc2c(cnn2CCc2ccccc2)c2nc(-c3ccco3)nn12` [SCH 58261, 5-amino-7-(2-phenylethyl)-2-(2-furyl)pyrazolo[4,3-e]1,2,4-triazolo[1,5-c]pyrimidine], for which, in data set [1], the Ki was > 1000 nM.

Take `CSc1c2c(nc(N)n3nc(-c4ccc(CN5CCN(C)CC5)o4)nc23)nn1C` [Compound 56]: the water solubility entry in data set [2] is given as “significant water solubility”.

In the case of `CCNc1c2c(nc(NC(=O)Nc3ccc(OC)cc3)n3nc(-c4ccco4)nc23)nn1C.Cl` [Compound 55, 1-(9-Ethylamino-2-furan-2-yl-8-methyl-8H-pyrazolo[4,3-e][1,2,4]triazolo[1,5-c]pyrimidin-5-yl)-3-(4-methoxy-phenyl)-urea hydrochloride salt], the Ki in data set [3] (Table 3: [3H]DPCPX, human A1, CHO cells, hydrochloride salt) worked out at 100 nM; in data set [4] (setting [7]), 16 nM; in data set [5] (Table 3: [3H]DPCPX, HEK-293 cells, hydrochloride salt) it was 23 nM; in data set [6] (setting [8]), 9 nM. Moreover, the water solubility result in data set [2] is listed as “complete water solubility”. In addition, the “selectivity for A3 versus the other adenosine receptor subtypes” value in data set [6] is given as “very low”. For the same compound, in data set [6], the “affinity for / interaction with A3 adenosine receptor subtype” value was “increased”.

For the compound `CCOC(=O)COc1ccc(-c2nc3c4cnn(CCc5ccccc5)c4nc(N)n3n2)cc1` [Compound 6, [4-(5-Amino-7-phenethyl-7H-pyrazolo[4,3-e][1,2,4]triazolo[1,5-c]pyrimidin-2-yl)-phenoxy]-acetic acid ethyl ester], the Ki in data set [3] (setting [9]) was > 1000 nM; in data set [4] (setting [10]), > 1000 nM; in data set [5] (Table 2, footnote b: [3H]DPCPX), > 1000 nM; in data set [6] (setting [11]) it was > 1000 nM.

As for `CCOc1ccccc1-c1nc2c3cnn(CCc4ccccc4)c3nc(N)n2n1` [Compound 5c, 2-(2-Ethoxy-phenyl)-7-phenethyl-7H-pyrazolo[4,3-e][1,2,4]triazolo[1,5-c]pyrimidin-5-ylamine], the Ki is > 1000 nM in data set [3] (setting [9]); > 1000 nM in data set [4] (setting [10]); > 1000 nM in data set [5] (Table 2, footnote b: [3H]DPCPX); 348 nM in data set [6] (setting [11]). Further, the “selectivity for A3 versus the other adenosine receptor subtypes” value in data set [6] is on record as “complete selectivity”. Besides, the “affinity for / interaction with A3 adenosine receptor subtype” value in data set [6] is listed as “poor affinity”.

With `CCCSc1c2c(nc(N)n3nc(-c4ccco4)nc23)nn1C` [Compound 42, 2-Furan-2-yl-8-methyl-9-propylsulfanyl-8H-pyrazolo[4,3-e][1,2,4]triazolo[1,5-c]pyrimidin-5-ylamine], the Ki in data set [3] (Table 3: [3H]DPCPX, human A1, CHO cells) was 9 nM; in data set [4] (setting [7]), 2.1 nM; in data set [5] (Table 3: [3H]DPCPX, HEK-293 cells), 69 nM; in data set [6] (setting [8]), 224 nM. Also, the “selectivity for A2A versus the other adenosine receptor subtypes” value in data set [4] (in words) is reported as “increases the selectivity”. Moreover, in data set [4] (in words, discussion of Tables 2 and 3), the “affinity for A2A adenosine receptor subtype” value is listed as “maintains the A2A affinity”.

The values above are taken from patent publication US7064204B2, “Pharmaceutically active compounds having a tricyclic pyrazolotriazolopyrimidine ring structure and methods of use” (King Pharmacueticals Reserch and Development, Inc., priority 2002, dated 2006).
